The source of these data is ChEMBL document CHEMBL5696442, “Discovery of type II inhibitors of TGFβ-activated kinase 1 (TAK1) and mitogen-activated protein kinase kinase kinase kinase 2 (MAP4K2)” (J Med Chem, 2015).

Activity calls are given as the source filed them. The rule behind the calls is not given here.

Assay [1] deals with Serine/threonine-protein kinase WNK2 (Homo sapiens) (UniProt Q9Y3S1). As to the kind of experiment: Inhibition of Wnk2 ACT labeling site in human Huh-7 cell lysate at 1 uM by KiNativ Profiling analysis relative to control. It is filed as subcellular.
Assay [2] deals with Calcium/calmodulin-dependent protein kinase type II subunit alpha (Homo sapiens) (UniProt Q9UQM7). As to the kind of experiment: Inhibition of CaMK2a Lys2 labeling site in human Huh-7 cell lysate at 1 uM by KiNativ Profiling analysis relative to control. The assay is classed as subcellular.
In assay [3] the target is Focal adhesion kinase 1 (Homo sapiens) (UniProt Q05397). Briefly: Inhibition of FAK ACT labeling site in human Huh-7 cell lysate at 1 uM by KiNativ Profiling analysis relative to control. It is filed as subcellular.
Assay [4] concerns the target Dual specificity protein kinase TTK (Homo sapiens) (UniProt P33981). As to the kind of experiment: Inhibition of TTK (unknown origin) at 1 uM by Ambit Kinomescan binding assay relative to control.
Assay [5] addresses Tyrosine-protein kinase BTK (Homo sapiens) (UniProt Q06187). As to the kind of experiment: Inhibition of BTK (unknown origin) at 1 uM by Ambit Kinomescan binding assay relative to control.
Assay [6] has as its target Serine/threonine-protein kinase DCLK1 (Homo sapiens) (UniProt O15075). Briefly: Inhibition of DCAMKL1 (unknown origin) at 1 uM by Ambit Kinomescan binding assay relative to control.
Assay [7] deals with Phosphatidylinositol 4-kinase alpha (Homo sapiens) (UniProt P42356). Briefly: Inhibition of PI4KA ATP labeling site in human A-375 cells at 0.05 uM by KiNativ Profiling analysis relative to control. The assay is classed as cell-based.
Assay [8] concerns the target Cyclin-dependent kinase 11B (Homo sapiens) (UniProt P21127). Briefly: Inhibition of CDK11 Lys2 labeling site in human A-375 cells at 0.5 uM by KiNativ Profiling analysis relative to control. The assay is classed as cell-based.
For assay [9], the target named is Ribosomal protein S6 kinase alpha-6 (Homo sapiens) (UniProt Q9UK32). As to the kind of experiment: Inhibition of N-terminal RPS6KA6 kinase domain 1 (unknown origin) at 10 uM by Ambit Kinomescan binding assay.
Assay [10] deals with T1, Phosphatidylinositol 5-phosphate 4-kinase type-2 beta (Homo sapiens) (UniProt P78356).
T1 sequence (whole entry): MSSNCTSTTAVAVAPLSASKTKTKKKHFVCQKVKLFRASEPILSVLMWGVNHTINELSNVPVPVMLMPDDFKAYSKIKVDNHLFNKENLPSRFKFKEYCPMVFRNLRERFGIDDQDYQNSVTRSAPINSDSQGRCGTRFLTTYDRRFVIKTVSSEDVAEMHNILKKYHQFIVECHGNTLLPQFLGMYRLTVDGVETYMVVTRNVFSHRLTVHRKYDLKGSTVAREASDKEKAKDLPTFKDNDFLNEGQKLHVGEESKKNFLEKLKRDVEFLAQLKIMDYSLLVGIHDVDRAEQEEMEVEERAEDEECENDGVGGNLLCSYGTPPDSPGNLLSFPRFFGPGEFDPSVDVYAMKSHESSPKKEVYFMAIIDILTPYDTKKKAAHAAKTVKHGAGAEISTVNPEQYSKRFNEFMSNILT
Briefly: Inhibition of PIP5K2B (unknown origin) at 10 uM by Ambit Kinomescan binding assay.

In assay [11] the target is Mitogen-activated protein kinase kinase kinase 10 (Homo sapiens) (UniProt Q02779). Briefly: Inhibition of MLK2 (unknown origin) at 10 uM by Ambit Kinomescan binding assay.
In assay [12] the target is Tyrosine-protein kinase Fes/Fps (Homo sapiens, UniProt P07332). As to the kind of experiment: Inhibition of FES K1 labeling site in human Huh-7 cells at 10 uM by KiNativ Profiling analysis relative to control. It is filed as cell-based.
The target of assay [13] is T2, PAN2-PAN3 deadenylation complex subunit PAN3 (Homo sapiens) (UniProt Q58A45).
T2 sequence (whole entry): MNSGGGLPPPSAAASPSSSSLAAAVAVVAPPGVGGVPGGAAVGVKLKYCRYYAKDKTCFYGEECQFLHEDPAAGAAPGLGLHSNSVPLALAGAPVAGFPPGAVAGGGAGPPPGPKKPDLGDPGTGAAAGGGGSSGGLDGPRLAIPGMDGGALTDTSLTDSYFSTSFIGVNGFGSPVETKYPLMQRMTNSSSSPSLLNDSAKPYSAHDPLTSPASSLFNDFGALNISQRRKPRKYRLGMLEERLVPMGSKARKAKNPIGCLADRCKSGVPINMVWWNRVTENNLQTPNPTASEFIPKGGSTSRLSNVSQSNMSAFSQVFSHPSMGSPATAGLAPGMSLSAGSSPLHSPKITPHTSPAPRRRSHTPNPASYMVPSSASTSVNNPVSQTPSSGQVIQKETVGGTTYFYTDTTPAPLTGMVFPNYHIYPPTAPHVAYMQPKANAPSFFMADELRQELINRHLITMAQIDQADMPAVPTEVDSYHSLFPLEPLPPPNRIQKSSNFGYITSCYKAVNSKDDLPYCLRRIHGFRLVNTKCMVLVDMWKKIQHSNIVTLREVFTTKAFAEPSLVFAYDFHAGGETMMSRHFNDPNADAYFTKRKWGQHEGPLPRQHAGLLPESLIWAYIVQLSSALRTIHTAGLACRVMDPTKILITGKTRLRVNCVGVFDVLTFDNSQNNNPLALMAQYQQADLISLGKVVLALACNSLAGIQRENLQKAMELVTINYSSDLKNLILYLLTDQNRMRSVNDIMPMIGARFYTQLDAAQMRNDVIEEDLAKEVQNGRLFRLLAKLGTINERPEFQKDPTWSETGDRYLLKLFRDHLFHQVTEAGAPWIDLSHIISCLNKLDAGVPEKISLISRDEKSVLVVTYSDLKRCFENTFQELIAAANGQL
As to the kind of experiment: Inhibition of PAN3 ATP labeling site in human A-375 cells at 0.05 uM by KiNativ Profiling analysis relative to control. The assay is classed as cell-based.

Assay [14] is described as follows: Inhibition of […] K2 labeling site in human Huh-7 cells at 1 uM by KiNativ Profiling analysis relative to control. The conditions noted are these: condition cancer.
Assay [15] deals with STE20-like serine/threonine-protein kinase (Homo sapiens) (UniProt Q9H2G2). As to the kind of experiment: Inhibition of SLK K2 labeling site harbouring IIHRDLKAGNILFTLDGDIK in human Huh-7 cells at 10 uM by KiNativ Profiling analysis relative to control. It is filed as cell-based.

Sequence of Ribosomal protein S6 kinase alpha-6 (Homo sapiens) (Q9UK32 whole entry, the tested form may be a part): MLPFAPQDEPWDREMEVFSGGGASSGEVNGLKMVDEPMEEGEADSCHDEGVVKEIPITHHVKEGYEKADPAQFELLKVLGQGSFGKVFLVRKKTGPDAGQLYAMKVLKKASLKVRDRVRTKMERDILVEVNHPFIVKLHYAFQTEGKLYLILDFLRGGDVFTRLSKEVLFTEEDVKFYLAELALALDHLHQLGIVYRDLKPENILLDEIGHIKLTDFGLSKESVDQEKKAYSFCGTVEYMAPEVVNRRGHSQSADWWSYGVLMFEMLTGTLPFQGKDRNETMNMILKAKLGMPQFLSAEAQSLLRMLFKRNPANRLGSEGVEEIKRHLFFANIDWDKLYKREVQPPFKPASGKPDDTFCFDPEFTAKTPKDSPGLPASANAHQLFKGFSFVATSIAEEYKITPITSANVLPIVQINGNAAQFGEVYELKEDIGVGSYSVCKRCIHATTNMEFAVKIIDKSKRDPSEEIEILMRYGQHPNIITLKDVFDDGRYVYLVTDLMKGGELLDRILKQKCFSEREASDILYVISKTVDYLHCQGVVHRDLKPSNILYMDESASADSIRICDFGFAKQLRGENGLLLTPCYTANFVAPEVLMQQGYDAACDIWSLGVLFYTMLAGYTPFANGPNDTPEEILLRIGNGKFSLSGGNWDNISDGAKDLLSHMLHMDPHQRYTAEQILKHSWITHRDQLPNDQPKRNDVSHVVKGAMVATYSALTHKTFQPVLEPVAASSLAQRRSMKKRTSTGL
Sequence of Dual specificity protein kinase TTK (Homo sapiens) (P33981 whole entry): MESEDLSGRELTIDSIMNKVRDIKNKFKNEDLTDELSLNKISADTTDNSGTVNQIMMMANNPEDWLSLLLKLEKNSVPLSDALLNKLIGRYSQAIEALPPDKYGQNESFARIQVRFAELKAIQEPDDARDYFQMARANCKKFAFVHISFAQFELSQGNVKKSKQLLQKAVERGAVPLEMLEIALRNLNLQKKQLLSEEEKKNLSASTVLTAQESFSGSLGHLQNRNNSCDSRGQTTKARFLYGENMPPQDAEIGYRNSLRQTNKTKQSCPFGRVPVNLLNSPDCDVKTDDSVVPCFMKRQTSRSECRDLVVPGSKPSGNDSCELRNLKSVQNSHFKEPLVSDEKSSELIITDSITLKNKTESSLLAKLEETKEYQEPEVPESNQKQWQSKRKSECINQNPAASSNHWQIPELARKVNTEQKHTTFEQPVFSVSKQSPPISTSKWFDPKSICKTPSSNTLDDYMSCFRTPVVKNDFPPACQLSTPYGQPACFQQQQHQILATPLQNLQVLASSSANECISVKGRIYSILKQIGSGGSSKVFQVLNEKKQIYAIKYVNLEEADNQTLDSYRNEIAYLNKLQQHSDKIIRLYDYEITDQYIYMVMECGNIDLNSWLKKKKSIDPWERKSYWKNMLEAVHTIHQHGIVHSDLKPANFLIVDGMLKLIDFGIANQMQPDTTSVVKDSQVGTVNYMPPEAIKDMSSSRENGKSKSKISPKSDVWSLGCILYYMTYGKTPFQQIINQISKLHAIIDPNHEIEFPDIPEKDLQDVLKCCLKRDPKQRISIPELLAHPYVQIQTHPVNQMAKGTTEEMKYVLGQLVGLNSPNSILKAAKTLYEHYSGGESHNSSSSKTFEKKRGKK
Sequence of Calcium/calmodulin-dependent protein kinase type II subunit alpha (Homo sapiens) (Q9UQM7 whole entry): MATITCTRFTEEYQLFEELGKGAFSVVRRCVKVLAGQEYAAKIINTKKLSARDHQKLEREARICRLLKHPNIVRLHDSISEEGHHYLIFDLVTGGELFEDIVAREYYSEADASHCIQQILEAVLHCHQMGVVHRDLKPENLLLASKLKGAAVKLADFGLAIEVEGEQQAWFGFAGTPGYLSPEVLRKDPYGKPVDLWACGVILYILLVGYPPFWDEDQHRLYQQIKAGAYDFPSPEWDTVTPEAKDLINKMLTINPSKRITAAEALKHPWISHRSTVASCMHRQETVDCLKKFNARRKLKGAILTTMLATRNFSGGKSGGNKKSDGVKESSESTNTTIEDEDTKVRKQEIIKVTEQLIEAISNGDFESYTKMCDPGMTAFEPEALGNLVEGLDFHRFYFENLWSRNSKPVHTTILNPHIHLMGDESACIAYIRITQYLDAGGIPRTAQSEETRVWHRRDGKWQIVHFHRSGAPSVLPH
Sequence of Phosphatidylinositol 4-kinase alpha (Homo sapiens) (P42356 whole entry, looked up): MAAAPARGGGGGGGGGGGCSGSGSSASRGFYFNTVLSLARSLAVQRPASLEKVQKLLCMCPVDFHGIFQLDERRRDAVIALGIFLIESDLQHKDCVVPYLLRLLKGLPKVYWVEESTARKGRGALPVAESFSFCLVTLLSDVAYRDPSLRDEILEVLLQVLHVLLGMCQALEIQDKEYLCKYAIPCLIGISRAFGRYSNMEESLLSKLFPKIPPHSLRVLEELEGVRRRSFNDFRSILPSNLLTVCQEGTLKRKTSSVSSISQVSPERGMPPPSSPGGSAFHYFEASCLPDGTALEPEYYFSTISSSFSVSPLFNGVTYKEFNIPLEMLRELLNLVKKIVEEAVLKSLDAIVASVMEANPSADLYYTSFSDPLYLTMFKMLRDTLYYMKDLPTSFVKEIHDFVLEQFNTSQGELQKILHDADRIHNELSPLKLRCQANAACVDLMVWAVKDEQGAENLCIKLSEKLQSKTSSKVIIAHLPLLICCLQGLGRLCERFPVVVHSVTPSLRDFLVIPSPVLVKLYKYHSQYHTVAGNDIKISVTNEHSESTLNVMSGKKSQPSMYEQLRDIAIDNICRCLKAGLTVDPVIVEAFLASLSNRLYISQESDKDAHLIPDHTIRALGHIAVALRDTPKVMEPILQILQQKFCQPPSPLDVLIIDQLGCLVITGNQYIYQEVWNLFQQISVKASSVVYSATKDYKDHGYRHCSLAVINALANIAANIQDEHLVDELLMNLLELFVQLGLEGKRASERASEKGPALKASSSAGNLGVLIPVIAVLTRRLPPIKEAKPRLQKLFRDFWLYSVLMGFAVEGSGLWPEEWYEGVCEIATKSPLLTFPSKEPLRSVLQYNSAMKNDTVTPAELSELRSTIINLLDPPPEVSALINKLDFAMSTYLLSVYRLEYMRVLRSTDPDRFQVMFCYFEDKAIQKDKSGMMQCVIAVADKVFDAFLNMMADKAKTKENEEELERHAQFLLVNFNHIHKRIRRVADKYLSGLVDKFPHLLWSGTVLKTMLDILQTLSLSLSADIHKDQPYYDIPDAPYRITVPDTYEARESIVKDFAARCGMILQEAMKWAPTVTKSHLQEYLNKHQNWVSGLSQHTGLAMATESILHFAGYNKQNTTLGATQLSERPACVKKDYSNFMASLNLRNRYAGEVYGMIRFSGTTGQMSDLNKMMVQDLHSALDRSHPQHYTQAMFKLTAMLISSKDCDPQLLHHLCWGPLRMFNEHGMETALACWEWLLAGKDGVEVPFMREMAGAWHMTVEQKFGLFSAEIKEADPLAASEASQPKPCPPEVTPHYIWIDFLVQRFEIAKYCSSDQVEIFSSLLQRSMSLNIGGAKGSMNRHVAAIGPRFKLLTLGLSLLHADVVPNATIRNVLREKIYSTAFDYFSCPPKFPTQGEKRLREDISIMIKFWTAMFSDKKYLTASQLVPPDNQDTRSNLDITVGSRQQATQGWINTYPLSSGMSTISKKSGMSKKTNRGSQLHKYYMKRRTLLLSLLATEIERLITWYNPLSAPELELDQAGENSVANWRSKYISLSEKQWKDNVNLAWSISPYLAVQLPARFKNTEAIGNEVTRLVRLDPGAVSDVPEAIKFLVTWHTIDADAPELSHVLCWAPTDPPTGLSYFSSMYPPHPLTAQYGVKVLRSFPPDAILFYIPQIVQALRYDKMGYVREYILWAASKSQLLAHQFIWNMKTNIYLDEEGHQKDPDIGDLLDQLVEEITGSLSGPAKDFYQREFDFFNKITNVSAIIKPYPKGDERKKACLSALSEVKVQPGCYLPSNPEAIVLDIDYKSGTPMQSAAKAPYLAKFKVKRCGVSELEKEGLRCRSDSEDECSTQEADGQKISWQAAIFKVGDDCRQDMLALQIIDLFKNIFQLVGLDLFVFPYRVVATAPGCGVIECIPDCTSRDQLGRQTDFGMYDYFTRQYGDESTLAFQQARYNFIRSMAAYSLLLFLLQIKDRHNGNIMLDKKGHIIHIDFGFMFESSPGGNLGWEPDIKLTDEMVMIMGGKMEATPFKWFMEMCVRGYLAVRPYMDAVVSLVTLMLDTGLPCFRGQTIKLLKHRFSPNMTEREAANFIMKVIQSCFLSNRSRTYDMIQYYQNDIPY
Sequence of Tyrosine-protein kinase Fes/Fps (P07332 whole entry): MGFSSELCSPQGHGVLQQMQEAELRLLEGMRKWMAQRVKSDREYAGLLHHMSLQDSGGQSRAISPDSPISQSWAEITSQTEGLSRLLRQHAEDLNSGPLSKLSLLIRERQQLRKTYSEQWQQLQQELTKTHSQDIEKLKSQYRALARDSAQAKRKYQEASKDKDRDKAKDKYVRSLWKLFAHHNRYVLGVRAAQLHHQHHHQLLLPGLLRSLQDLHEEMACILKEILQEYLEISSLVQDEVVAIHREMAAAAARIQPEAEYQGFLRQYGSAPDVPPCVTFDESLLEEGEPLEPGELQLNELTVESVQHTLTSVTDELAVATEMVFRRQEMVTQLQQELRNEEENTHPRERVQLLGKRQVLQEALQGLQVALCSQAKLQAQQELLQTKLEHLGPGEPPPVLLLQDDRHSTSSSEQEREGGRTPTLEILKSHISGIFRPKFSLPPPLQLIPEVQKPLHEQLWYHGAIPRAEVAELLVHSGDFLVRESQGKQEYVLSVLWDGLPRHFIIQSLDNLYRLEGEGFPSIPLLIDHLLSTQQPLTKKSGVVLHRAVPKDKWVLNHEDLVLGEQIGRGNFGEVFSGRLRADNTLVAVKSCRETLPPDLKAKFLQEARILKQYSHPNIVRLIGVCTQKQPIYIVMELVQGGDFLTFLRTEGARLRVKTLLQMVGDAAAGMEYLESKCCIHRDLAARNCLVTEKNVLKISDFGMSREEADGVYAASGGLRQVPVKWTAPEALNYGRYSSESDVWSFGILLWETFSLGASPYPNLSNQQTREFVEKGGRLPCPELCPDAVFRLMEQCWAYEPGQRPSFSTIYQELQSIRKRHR

As to `CNc1cc(Oc2cc(C(=O)Nc3cc(N4CCN(C)CC4)cc(C(F)(F)F)c3)ccc2C)ncn1`, the results for the inhibition in [1], in assay [2] and in assay [3] were -6.9%, 0.7% and 16%, respectively.

Consider `CCN1CCN(Cc2ccc(NC(=O)c3ccc(C)c(/C=C/c4cnc5[nH]ccc5c4OC)c3)cc2C(F)(F)F)CC1`, for which the inhibition (usually the relative decrease from the control value, in per cent) in assay [4] is 56%; in assay [5] it was 10%; in assay [6], 100%; in assay [7] it was 0.8%.

Consider `CCN1CCN(Cc2ccc(NC(=O)c3ccc(C)c(Oc4ccnc5[nH]ccc45)c3)cc2C(F)(F)F)CC1`, for which the inhibition in [8] was found to be 51.2%; in assay [12], 72.6%; in assay [13], 7%; in [15], 15.7%. In addition, the inhibition entry in assay [9], in assay [10] and in assay [11] was “inactive” throughout. Further, the inhibition at 1 µM in assay [14] was -16%.
